According to US20170021014A1, “VACCINE ADJUVANTS FOR CYTOMEGALOVIRUS PREVENTION AND TREATMENT” (THE JOHNS HOPKINS UNIVERSITY, priority 2015, published 2017):

Tests used:
[1] = tested on: HCMV proteins (IE1/2, pp65); assay: Western blot of HCMV proteins in infected HFFs; type: cell-based, human cytomegalovirus
Experimental: Cell lysates containing equivalent amount of proteins were mixed with an equal volume of sample buffer (125 mM Tris-HCL, pH 6.8, 4% SDS, 20% glycerol and 5% β-mercaptoethanol) and boiled at 100° C. for 10 min. Denatured proteins were resolved in Tris-glycine polyacrylamide gels (10-12%) and transferred to polyvinylidine difluoride (PVDF) membranes (Bio-Rad Laboratories, Hercules, Calif.) by electroblotting. Membranes were incubated in blocking solution [5% w/v non-fat dry milk and 0.1% Tween-20 in PBS (PBST)] for 1 h, washed with PBST, and incubated with antibody at 4° C. overnight. Membranes were washed with PBST and incubated with horseradish peroxidase-conjugated secondary antibodies in PBST for 1 h at room temperature. Following washing with PBST, protein bands were visualized by chemiluminescence using SuperSignal West Dura and Pico reagents (Pierce Chemical, Rockford, Ill.). Antibodies for HCMV proteins were used at 1:2000 and included: mouse monoclonal anti-HCMV IE1 & IE2 (MAB810, Millipore, Billerica, Mass.), mouse monoclonal anti-HCMV UL83 (pp65, Vector Laboratories Inc., Burlingame, Calif.), and mouse monoclonal anti-pp52 (UL44, Santa Cruz Biotechnology, Santa Cruz, Calif.). Rabbit polyclonal anti human-NOD2 antibody (H-300, 1:2000), rabbit polyclonal anti-RIPK2 (1:5000), mouse monoclonal anti-NF-KB (p65, 1:1000), rabbit polyclonal anti-IRF3 (1:1000) and mouse monoclonal anti-IRF7 (1:1000) were from Santa Cruz. Rabbit monoclonal anti-Histone H3 (1:2000), rabbit monoclonal anti-pERK1/2 (1:5000), mouse monoclonal anti-total ERK (1:2000), rabbit monoclonal anti-pIκBα (1:2000), mouse monoclonal anti-IκBα, rabbit monoclonal anti-pTBK1 (Ser172), and rabbit monoclonal anti-TBK1 (1:1000) were from Cell Signaling Technology, Beverly, Mass. Horseradish peroxidase (HRP)-conjugated anti-rabbit IgG was from Cell Signaling. […]
Quantitative analysis of proteins detected by immunoblotting was performed using ImageJ 1.48v software (NIH) by determining relative band intensities of individual bands. […]

clinical isolate of HCMV = assay: Immunofluorescence staining for HCMV IE1/2; type: cell-based, human cytomegalovirus; details: GIPZ HFFs, MDP pretreatment 72 h, infected 24 h, MOI 1
Experimental: GIPZ control and shIFN-β HFFs were seeded into 96-well plate (1×10^4 cells/well) and pretreated with MDP (10 μg/mL) for 72 h. Cells were then infected with a clinical isolate of HCMV at MOI 1. Twenty-four hours after infection, cells were fixed with methanol/acetone (1:1) at −20° C. for 10 min. Cells were then blocked with 7.5% BSA for 30 min. and incubated for 1 h with anti-human CMV IE1&2 antibody (MAB810) (1:500 in 0.5% BSA). After 3 washes with PBS, cells were incubated with FITC-anti mouse antibody (F8521, Sigma, 1:500, in 0.5% BSA) for 1 h. Then cells were washed 3 times with PBS and counterstained with propidium iodide (Invitrogen) for nuclear staining. Images were taken using Nikon Eclipse TS100 microscope.

CC(=O)N[C@H]1C(O)O[C@H](CO)[C@@H](O)[C@@H]1O[C@H](C)C(=O)N[C@@H](C)C(=O)N[C@H](CCC(=O)O)C(N)=O (mixture of isomers) [MDP, Muramyl dipeptide]
decrease in pp65 expression ([1]; MDP treatment after infection, MOI 0.1, 96 hpi): approximately 75% | reduction in pp65 expression ([1]; MDP treatment after infection, higher MOI (MOI 1), 96 hpi): 40% | HCMV replication, dose response ([1]; MOI 0.1, IE1/2 and pp65 expression after 4 days): suppressed HCMV replication (MOI 0.1) in a dose-dependent manner | nuclear IE1/2 expression (clinical isolate of HCMV): reduced IE1/2 expression
